A word on the IC50: it is the point on the concentration scale where inhibition reaches its midpoint.

The structures appear in SMILES notation. The source made the active and inactive calls. No cut-off for these calls is given here.

Data set [1] addresses T1, NACHT, LRR and PYD domains-containing protein 3 (Mus musculus, UniProt Q8R4B8). Briefly: Inhibition of NLRP3 in mouse J774A.1 cells infected with FLA-ST assessed as inhibition of LPS- induced IL-1beta production by ELISA. The format is cell-based, J774.A1. (ELISA stands for enzyme-linked immunosorbent assay.)
The test system of data set [2] is Mus musculus. In words: Anti-colitis activity against DSS-induced colitis C57BL/6 mouse model assessed as reduction in colon length treated orally once daily for 14 days started from day 3 post DSS-challenge. Particulars: dose 25-50 mg/kg, time 14.0 day. The data set is classed as functional, organism-based.
Data set [3] concerns the target NACHT, LRR and PYD domains-containing protein 3 (Mus musculus) (UniProt Q8R4B8). In words: Inhibition of NLRP3 inflammasome activation in LPS/nigericin-treated mouse J774A.1 cells assessed as blockade of caspase 1 p20 maturation pre-treated for 1 hr measured after 1 hr of stimulation by Western blot analysis. The following applies: J774.A1, dose 1-5 µM, time 2.0 hrs. On the technique in general: In western blotting, separated proteins are transferred to a membrane and probed.

Data set [4] can be described thus: Cytotoxicity against human HEK293T cells assessed as reduction in cell viability at 24 hrs by CCK8 assay. The format is cell-based, HEK-293T. Particulars: read-out: TD50. On the technique in general: Formazan colour is commonly taken as a measure of viable cells.
Data set [5] concerns J774.A1. In words: Inhibition of reactive oxygen species generation in LPS/nigericin-induced mouse J774.A1 cells pre-treated for 1 hr at 1 to 5 uM measured after 1 hr of stimulation by DCFH-DA staining-based method relative to control. The format is functional, cell-based. Particulars: dose 1-5 µM, time 2.0 hrs.
Data set [6] deals with J774.A1. In words: Anti-pyroptosis activity against LPS/nigericin-induced mouse […] cells pre-treated for 1 hr at 1 to 5 uM measured after 1 hr of stimulation. The data set is classed as functional, cell-based. The following applies: dose 1-5 µM.
In data set [7] the target is NACHT, LRR and PYD domains-containing protein 3 (Mus musculus) (UniProt Q8R4B8). Briefly: Inhibition of NLRP3 inflammasome activation in LPS/nigericin-treated mouse J774A.1 cells assessed as effect on pro-IL-1-beta pre-treated for 1 hr at 1 to 5 uM measured after 1 hr of stimulation by Western blot analysis. Particulars: J774.A1, dose 1-5 µM, time 2.0 hrs.
Sequence of NACHT, LRR and PYD domains-containing protein 3 (Mus musculus) (Q8R4B8 whole entry, the tested form may be a part): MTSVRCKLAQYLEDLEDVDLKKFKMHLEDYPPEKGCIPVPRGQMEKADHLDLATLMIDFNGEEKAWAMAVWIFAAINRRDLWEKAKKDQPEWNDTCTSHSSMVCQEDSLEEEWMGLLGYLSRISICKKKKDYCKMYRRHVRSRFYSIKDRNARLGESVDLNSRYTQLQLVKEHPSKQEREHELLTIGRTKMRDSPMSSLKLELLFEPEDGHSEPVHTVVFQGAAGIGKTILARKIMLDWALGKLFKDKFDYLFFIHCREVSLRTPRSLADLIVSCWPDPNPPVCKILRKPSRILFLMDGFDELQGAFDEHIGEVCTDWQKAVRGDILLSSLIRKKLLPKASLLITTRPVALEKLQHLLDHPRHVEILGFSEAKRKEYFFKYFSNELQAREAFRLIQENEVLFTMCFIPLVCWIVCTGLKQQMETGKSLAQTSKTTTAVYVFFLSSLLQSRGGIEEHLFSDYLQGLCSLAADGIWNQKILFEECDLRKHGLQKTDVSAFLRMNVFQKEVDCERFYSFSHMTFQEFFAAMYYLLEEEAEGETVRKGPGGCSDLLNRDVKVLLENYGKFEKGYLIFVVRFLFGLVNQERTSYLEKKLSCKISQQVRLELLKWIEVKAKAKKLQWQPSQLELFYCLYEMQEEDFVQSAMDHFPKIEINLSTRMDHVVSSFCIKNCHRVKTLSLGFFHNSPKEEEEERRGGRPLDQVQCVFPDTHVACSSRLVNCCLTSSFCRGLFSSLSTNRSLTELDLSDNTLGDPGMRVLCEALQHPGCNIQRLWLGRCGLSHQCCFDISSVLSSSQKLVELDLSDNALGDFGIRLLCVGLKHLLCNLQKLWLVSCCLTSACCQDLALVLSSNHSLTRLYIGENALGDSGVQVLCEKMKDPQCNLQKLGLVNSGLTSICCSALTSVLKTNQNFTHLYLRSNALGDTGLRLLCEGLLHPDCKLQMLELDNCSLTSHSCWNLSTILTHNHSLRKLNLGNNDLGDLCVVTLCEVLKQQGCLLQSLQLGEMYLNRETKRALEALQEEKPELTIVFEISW
For data set [8], the system named is Mus musculus. In words: Antiinflammatory activity in po dosed LPS-induced sepsis C57BL/6 mouse model assessed as reduction in IL-1beta secretion in serum measured after 6 hrs by ELISA. The format is functional, organism-based. Particulars: dose 25-50 mg/kg.
A short description of data set [9]: Selectivity index, ratio of TC50 for cytotoxicity against human HEK293T cells to IC50 for inhibition of NLRP3 in mouse J774A.1 cells.
For data set [10], the system named is Mus musculus. Briefly: Anti-colitis activity against DSS-induced colitis C57BL/6 mouse model assessed as reduction in fecal occult blood treated orally once daily for 14 days started from day 3 post DSS-challenge. The data set is classed as functional, organism-based. The following applies: dose 25-50 mg/kg, time 14.0 day.
In data set [11] the target is NACHT, LRR and PYD domains-containing protein 3 (Mus musculus) (UniProt Q8R4B8). In words: Inhibition of NLRP3 inflammasome activation in LPS/nigericin-treated mouse J774A.1 cells assessed as blockade of IL-1beta secretion pre-treated for 1 hr measured after 1 hr of stimulation by Western blot analysis. Particulars: J774.A1, dose 1-5 µM, time 2.0 hrs.
Data set [12] concerns Mus musculus. Briefly: Anti-colitis activity against DSS-induced colitis C57BL/6 mouse model assessed as reduction in IL-1 beta in colonic tissue treated orally once daily for 14 days started from day 3 post DSS-challenge by ELISA relative to control. The data set is classed as functional, organism-based. Particulars: dose 25-50 mg/kg, time 14.0 day.
Data set [13] deals with Mus musculus. In words: Antiinflammatory activity in po dosed LPS-induced sepsis C57BL/6 mouse model assessed as reduction in IL-1beta secretion in peritonial fluid measured after 6 hrs by ELISA. The data set is classed as functional, organism-based. The following applies: dose 25-50 mg/kg.
Data set [14] deals with J774.A1. Briefly: Cytotoxicity against mouse J774A.1 cells assessed as reduction in cell viability at 24 hrs by CCK8 assay. The format is cell-based. The following applies: j774.a1, 24 h.
Data set [15] addresses NACHT, LRR and PYD domains-containing protein 3 (Mus musculus) (UniProt Q8R4B8). Briefly: (§1) Inhibition of NLRP3 inflammasome activation in LPS/nigericin-treated mouse BMDM cells assessed as inhibition of LPS and nigericin-induced IL-1beta production pre-treated for 1 hr measured after 1 hr of stimulation by ELISA. The format is cell-based. The following applies: dose 1-5 µM, time 2.0 hrs.

For data set [16] the target is unchanged. In words: Inhibition of NLRP3 inflammasome activation in LPS/nigericin-treated mouse J774A.1 cells assessed as effect on pro-caspase-1 pre-treated for 1 hr at 1 to 5 uM measured after 1 hr of stimulation by Western blot analysis. The following applies: J774.A1, dose 1-5 µM.
The subject of data set [17] is J774.A1. In words: Inhibition of reactive oxygen species generation in LPS/nigericin-induced mouse J774.A1 cells pre-treated for 1 hr at 1 to 5 uM measured after 1 hr of stimulation by fluorescence microplate-reader relative to control. The data set is classed as functional, cell-based. Particulars: dose 1-5 µM, time 2.0 hrs.
Data set [18] addresses T2, Interferon-inducible protein AIM2 (Mus musculus) (UniProt Q91VJ1).
T2 sequence (whole entry): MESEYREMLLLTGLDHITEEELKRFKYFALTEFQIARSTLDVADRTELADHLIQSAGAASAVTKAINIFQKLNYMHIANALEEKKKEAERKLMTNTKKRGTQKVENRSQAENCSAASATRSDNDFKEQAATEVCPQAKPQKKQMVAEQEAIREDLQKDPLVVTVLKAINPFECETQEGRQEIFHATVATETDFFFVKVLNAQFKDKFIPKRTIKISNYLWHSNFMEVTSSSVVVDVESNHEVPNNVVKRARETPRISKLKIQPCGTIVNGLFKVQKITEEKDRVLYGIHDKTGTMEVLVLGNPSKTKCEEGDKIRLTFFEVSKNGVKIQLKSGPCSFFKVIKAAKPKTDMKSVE
Briefly: Inhibition of AIM2 inflammasome activation in LPS-induced mouse […] cells infected with […] pre-treated for 1 hr at 1 to 5 uM measured after 1 hr of stimulation. The following applies: J774.A1, dose 1-5 µM, time 2.0 hrs.

Data set [19] addresses NLR family CARD domain-containing protein 4 (Mus musculus) (UniProt Q3UP24). In words: Inhibition of NLRC4 inflammasome activation in LPS-induced mouse […] cells infected with […] pre-treated for 1 hr at 1 to 5 uM measured after 1 hr of stimulation. Particulars: J774.A1, dose 1-5 µM, time 2.0 hrs.
The subject of data set [20] is J774.A1. Briefly: Cytotoxicity against mouse J774A.1 cells assessed as reduction in cell viability at 2 hrs by CellTiter 96 AQueous One solution cell proliferation assay. The format is cell-based. The following applies: j774.a1, 2 h.
Data set [21] addresses NACHT, LRR and PYD domains-containing protein 3 (Mus musculus) (UniProt Q8R4B8). Briefly: Inhibition of NLRP3 inflammasome activation in LPS/nigericin-treated mouse J774A.1 cells assessed as inhibition of LPS and nigericin-induced IL-1beta production pre-treated for 1 hr measured after 1 hr of stimulation by ELISA. The following applies: J774.A1, dose 1-5 µM, time 2.0 hrs.

Data set [22] relates to J774.A1. In words: Inhibition of IL-1 beta release in LPS/nigericin-induced mouse J774.A1 cells pre-treated for 1 hr at 1 to 5 uM measured after 1 hr of stimulation by Western blot analysis. The data set is classed as functional. The following applies: dose 1-5 µM, time 2.0 hrs.
For data set [23], the system named is J774.A1. Briefly: Inhibition of mitochondrial reactive oxygen species generation in LPS/nigericin-induced mouse J774.A1 cells pre-treated for 1 hr at 1 to 5 uM measured after 1 hr of stimulation by MitoSOX Red fluorescence microplate-reader relative to control. Particulars: dose 1-5 µM, time 2.0 hrs. The data set is classed as functional.
The target in data set [24] is NACHT, LRR and PYD domains-containing protein 3 (Mus musculus) (UniProt Q8R4B8). In words: Inhibition of NLRP3 inflammasome activation in LPS/nigericin-treated mouse J774A.1 cells assessed as effect on […] in cell lysate pre-treated for 1 hr at 1 to 5 uM measured after 1 hr of stimulation by Western blot analysis. The data set is classed as subcellular. The following applies: J774.A1, dose 1-5 µM, time 2.0 hrs.

The nature of data set [25]: Stability assessed as glutathione reactivity of compound incubated for 24 hrs. The data set is classed as physicochemical.
Data set [26] is described as follows: Solubility of compound. The data set is classed as physicochemical.
The target of data set [27] is T1, NACHT, LRR and PYD domains-containing protein 3. Described as §1. The format is cell-based.

T1 sequence (Q8R4B8 whole entry, the tested form may be a part): as the sequence (Q8R4B8 whole entry, the tested form may be a part) above
Sequence of NLR family CARD domain-containing protein 4 (Mus musculus) (Q3UP24 whole entry, the tested form may be a part): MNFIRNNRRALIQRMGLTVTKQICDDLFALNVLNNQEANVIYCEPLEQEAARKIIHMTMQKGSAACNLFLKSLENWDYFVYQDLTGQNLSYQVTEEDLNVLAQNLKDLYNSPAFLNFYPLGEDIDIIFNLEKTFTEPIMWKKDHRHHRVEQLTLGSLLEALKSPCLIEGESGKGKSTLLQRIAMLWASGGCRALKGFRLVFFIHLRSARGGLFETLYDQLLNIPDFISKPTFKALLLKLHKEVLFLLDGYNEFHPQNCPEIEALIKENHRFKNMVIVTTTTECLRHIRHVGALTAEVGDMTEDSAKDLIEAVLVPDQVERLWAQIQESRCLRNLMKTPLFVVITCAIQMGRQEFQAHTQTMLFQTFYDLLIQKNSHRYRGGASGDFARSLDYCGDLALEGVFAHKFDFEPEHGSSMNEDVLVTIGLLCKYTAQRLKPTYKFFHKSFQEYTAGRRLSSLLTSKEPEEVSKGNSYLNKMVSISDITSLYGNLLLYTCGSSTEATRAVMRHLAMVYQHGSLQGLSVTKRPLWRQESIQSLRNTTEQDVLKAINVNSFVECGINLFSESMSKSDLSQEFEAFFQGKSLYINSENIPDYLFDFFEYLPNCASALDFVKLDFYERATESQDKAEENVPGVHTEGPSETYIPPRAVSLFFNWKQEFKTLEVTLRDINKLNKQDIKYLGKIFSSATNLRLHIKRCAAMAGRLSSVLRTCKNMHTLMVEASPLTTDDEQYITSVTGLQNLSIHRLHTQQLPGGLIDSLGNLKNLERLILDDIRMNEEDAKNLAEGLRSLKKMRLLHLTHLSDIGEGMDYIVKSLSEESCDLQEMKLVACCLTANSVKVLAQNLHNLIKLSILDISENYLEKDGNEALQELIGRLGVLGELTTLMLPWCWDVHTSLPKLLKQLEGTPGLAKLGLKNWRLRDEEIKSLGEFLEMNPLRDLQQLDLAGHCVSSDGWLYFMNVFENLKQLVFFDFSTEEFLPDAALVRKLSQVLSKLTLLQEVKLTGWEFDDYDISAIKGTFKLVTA

In the case of `Cc1ccc(-c2ccc(C(=O)/C=C/c3cc(C)c(O)c(C)c3)cc2)s1`, in data set [1], the IC50 is greater than 40 µM.

Regarding `CCCNC(=O)Oc1c(C)cc(/C=C/C(=O)c2ccc(SC)cc2)cc1C`, the IC50 in [1] was found to be 22.3 µM.

For the molecule `CSc1ccc(C(=O)/C=C/c2ccc3c(c2)CCO3)cc1`, the IC50 in [1] is 24.2 µM.

Consider `C=CC(=O)Nc1ccc(C(=O)/C=C/c2cc(C)c(O)c(C)c2)cc1`, for which the result with Mus musculus [2], in the data set with J774.A1 [6], with Mus musculus [10] and with Mus musculus [12] was Active. The inhibition result in data set [3], in data set [15] and in data set [21] was “Dose-Dependent Effect” each time. Further, in data set [4], the CC50 at 24 h is 156 µM. The inhibition entry in the data set with J774.A1 [5], in the data set on J774.A1 [17], in the data set with J774.A1 [22] and with J774.A1 [23] was “Active” each time. For the same molecule, the inhibition result in [7], in data set [11], in [18], in data set [19] and in [24] was “inactive” each time. The Activity result in the data set on Mus musculus [8] is “Dose-Dependent Effect”; in the data set on Mus musculus [13], “Dose-Dependent Effect”; in the data set with J774.A1 [14] it was “Toxic”; in the data set with J774.A1 [20] it was “Non-Toxic”. In addition, the “Selectivity Index” value in [9] amounted to 119.7. In data set [1], the IC50 was determined as 1.3 µM. The result in data set [16] was inactive. The Stabilty entry in data set [25] was “Stable”.

Turning to `CCC(Oc1c(C)cc(/C=C/C(=O)c2ccc(SC)cc2)cc1C)C(=O)O` (stereo unspecified), in data set [1], the IC50 came to 31.7 µM.

On to `Cc1cc(/C=C/C(=O)c2ccc(F)cc2)cc(C)c1O`, for which, in data set [1], the IC50 amounted to 12.3 µM.

In the case of `CSc1ccc(C(=O)/C=C/c2cc(C)c(OCCCCC(=O)O)c(C)c2)cc1`, the IC50 in [1] came out at 28.9 µM.

For `CSc1ccc(C(=O)/C=C/c2c(C)cc(O)cc2C)cc1`, the IC50 in data set [1] is greater than 40 µM.

Regarding `CSc1ccc(C(=O)/C=C/c2cc(C)c(O)cc2C)cc1`, the IC50 in data set [1] amounted to 5.3 µM.

As for `COc1cc(/C=C/C(=O)c2ccc(SC)cc2)ccc1O`, in data set [1], the IC50 was found to be 10 µM.

As for `C=C(COc1c(C)cc(/C=C/C(=O)c2ccc(SC)cc2)cc1C)C(=O)O`, the IC50 in data set [1] was greater than 40 µM.

`COc1c(C)cc(/C=C/C(=O)c2ccc(NC(=O)Nc3ccc(F)cc3)cc2)cc1C`: the IC50 in data set [1] came out at 23.5 µM.

For the molecule `COc1c(C)cc(/C=C/C(=O)c2ccc(N(C)C)cc2)cc1C`, in [1], the IC50 came to 25.9 µM.

Turning to `CSc1ccc(C(=O)/C=C/c2ccc(O)c(C)c2)cc1`, the IC50 in data set [1] came out at 8.8 µM.

As for `CSc1ccc(C(=O)/C=C/c2ccc(O)cc2)cc1`, the IC50 in data set [1] came to 14.6 µM.

In the case of `Cc1cc(/C=C/C(=O)c2ccc(-c3ccccc3)cc2)cc(C)c1O`, in data set [1], the IC50 was 29.4 µM.

Consider `CS(=O)(=O)CCC#N` [DAPANSUTRILE], for which the IC50 in data set [1] is 0.1 µM.

In the case of `CCN(CC)C(=S)SSC(=S)N(CC)CC` [DISULFIRAM], in [1], the IC50 was determined as 3 µM.

Take `CSc1ccc(C(=O)/C=C/c2ccc(O)c(O)c2)cc1`: the solubility result in data set [26] is reported as “Insoluble”. Also, in data set [1], the IC50 was found to be 1.6 µM.

In the case of `CCCNC(=O)Nc1ccc(C(=O)/C=C/c2cc(C)c(OC)c(C)c2)cc1`, the IC50 in data set [1] was 9.6 µM.

Take `O=C(O)c1ccc(/C=C2\SC(=S)N(Cc3cccc(C(F)(F)F)c3)C2=O)cc1`: the IC50 in data set [27] is 1 µM.

Source of the values: ChEMBL document CHEMBL4814056, “Discovery of chalcone analogues as novel NLRP3 inflammasome inhibitors with potent anti-inflammation activities” (Eur J Med Chem, 2021).
